Assay results from PubChem BioAssay AID1845207 (Molecular Pharmacology Branch, DTP, NCI, 2023).

Test system: NCI-H1876 tumor spheroid viability
Assay: Anticancer human tumor NCI-H1876 cell line growth inhibition;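 further: spheroids exposed to compounds for seven days before the viability read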;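 on viability, T/C: percent of DMSO vehicle control viability so 100% = vehicle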
Settings: spheroids with HUVEC and MSC; for IC50: curve of first compound; for viability, T/C: stronger effect = lower value
In short: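 Complex tumor spheroids combined malignant cells with endothelial cells and mesenchymal stem cells. DNA-damaging drugs and DNA repair inhibitors were tested alone and in combination, at half-log dilutions down from clinical Cmax (top 10 microM if Cmax unknown), 0.25% DMSO final.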

CNCc1ccc(-c2cc(-c3nc(-c4ccc(S(=O)(=O)C(C)C)cc4)cnc3N)on2)cc1 + CC[C@@]1(O)C(=O)OCc2c1cc1n(c2=O)Cc2cc3c(CN(C)C)c(O)ccc3nc2-1
IC50 (second compound 0.003 µM): 56.8 nM
IC50 (second compound 0.00949 µM): < 9.49 nM
IC50 (second compound 0.03 µM): < 9.49 nM
IC50 (second compound 0.0949 µM): < 9.49 nM
IC50 (second compound 0.3 µM): < 9.49 nM
viability, T/C (second compound 0.003 µM, first compound 0.00949 µM): 68%
viability, T/C (second compound 0.003 µM, first compound 0.03 µM): 57.6%
viability, T/C (second compound 0.003 µM, first compound 0.0949 µM): 34%
viability, T/C (second compound 0.003 µM, first compound 0.3 µM): 46.9%
viability, T/C (second compound 0.003 µM, first compound 0.949 µM): 5.62%
viability, T/C (second compound 0.003 µM, first compound 3 µM): 0.13%
viability, T/C (second compound 0.00949 µM, first compound 0.00949 µM): 46.3%
viability, T/C (second compound 0.00949 µM, first compound 0.03 µM): 34.2%
viability, T/C (second compound 0.00949 µM, first compound 0.0949 µM): 26.3%
viability, T/C (second compound 0.00949 µM, first compound 0.3 µM): 18%
viability, T/C (second compound 0.00949 µM, first compound 0.949 µM): 5.92%
viability, T/C (second compound 0.00949 µM, first compound 3 µM): 0.13%
viability, T/C (second compound 0.03 µM, first compound 0.00949 µM): 13.6%
viability, T/C (second compound 0.03 µM, first compound 0.03 µM): 14.5%
viability, T/C (second compound 0.03 µM, first compound 0.0949 µM): 16.9%
viability, T/C (second compound 0.03 µM, first compound 0.3 µM): 19%
viability, T/C (second compound 0.03 µM, first compound 0.949 µM): 5.1%
viability, T/C (second compound 0.03 µM, first compound 3 µM): 0.13%
viability, T/C (second compound 0.0949 µM, first compound 0.00949 µM): 8.73%
viability, T/C (second compound 0.0949 µM, first compound 0.03 µM): 8.03%
viability, T/C (second compound 0.0949 µM, first compound 0.0949 µM): 10.2%
viability, T/C (second compound 0.0949 µM, first compound 0.3 µM): 8.96%
viability, T/C (second compound 0.0949 µM, first compound 0.949 µM): 3.31%
viability, T/C (second compound 0.0949 µM, first compound 3 µM): 0.13%
viability, T/C (second compound 0.3 µM, first compound 0.00949 µM): 3.51%
viability, T/C (second compound 0.3 µM, first compound 0.03 µM): 3.44%
viability, T/C (second compound 0.3 µM, first compound 0.0949 µM): 3.53%
viability, T/C (second compound 0.3 µM, first compound 0.3 µM): 3.41%
viability, T/C (second compound 0.3 µM, first compound 0.949 µM): 1.38%
viability, T/C (second compound 0.3 µM, first compound 3 µM): 0.19%

COc1ccc([C@@H](O)c2cc(-c3ncnc4cc(N5CCOCC5)ccc34)c(F)cc2Cl)nn1 + COc1cc2c(cc1O)CCNC21CSC2c3c(OC(C)=O)c(C)c4c(c3C(COC1=O)N1C(O)C3Cc5cc(C)c(OC)c(O)c5C(C21)N3C)OCO4
IC50 (second compound 30 pM): 2540 nM
IC50 (second compound 94.9 pM): 778 nM
IC50 (second compound 0.0003 µM): < 31.6 nM
IC50 (second compound 0.000949 µM): < 31.6 nM
IC50 (second compound 0.003 µM): < 31.6 nM
viability, T/C (second compound 30 pM, first compound 0.0316 µM): 104%
viability, T/C (second compound 30 pM, first compound 0.1 µM): 102%
viability, T/C (second compound 30 pM, first compound 0.316 µM): 99.5%
viability, T/C (second compound 30 pM, first compound 1 µM): 92%
viability, T/C (second compound 30 pM, first compound 3.16 µM): 40.2%
viability, T/C (second compound 30 pM, first compound 10 µM): 8.98%
viability, T/C (second compound 94.9 pM, first compound 0.0316 µM): 93%
viability, T/C (second compound 94.9 pM, first compound 0.1 µM): 87.6%
viability, T/C (second compound 94.9 pM, first compound 0.316 µM): 78%
viability, T/C (second compound 94.9 pM, first compound 1 µM): 41.5%
viability, T/C (second compound 94.9 pM, first compound 3.16 µM): 16.1%
viability, T/C (second compound 94.9 pM, first compound 10 µM): 5.87%
viability, T/C (second compound 0.0003 µM, first compound 0.0316 µM): 20.7%
viability, T/C (second compound 0.0003 µM, first compound 0.1 µM): 20.1%
viability, T/C (second compound 0.0003 µM, first compound 0.316 µM): 15.1%
viability, T/C (second compound 0.0003 µM, first compound 1 µM): 7.3%
viability, T/C (second compound 0.0003 µM, first compound 3.16 µM): 2.15%
viability, T/C (second compound 0.0003 µM, first compound 10 µM): 2.31%
viability, T/C (second compound 0.000949 µM, first compound 0.0316 µM): 2.44%
viability, T/C (second compound 0.000949 µM, first compound 0.1 µM): 2.76%
viability, T/C (second compound 0.000949 µM, first compound 0.316 µM): 3.13%
viability, T/C (second compound 0.000949 µM, first compound 1 µM): 1.08%
viability, T/C (second compound 0.000949 µM, first compound 3.16 µM): 0.81%
viability, T/C (second compound 0.000949 µM, first compound 10 µM): 0.98%
viability, T/C (second compound 0.003 µM, first compound 0.0316 µM): 0.93%
viability, T/C (second compound 0.003 µM, first compound 0.1 µM): 0.67%
viability, T/C (second compound 0.003 µM, first compound 0.316 µM): 0.53%
viability, T/C (second compound 0.003 µM, first compound 1 µM): 0.63%
viability, T/C (second compound 0.003 µM, first compound 3.16 µM): 0.36%
viability, T/C (second compound 0.003 µM, first compound 10 µM): 0.33%
